≈ marks a conversion by molar mass, not a printed value. Read-outs that look alike come from different tables or passages of the source. Marks after values point to notes of the source that are not given here.
Columns and labels:
[1] = tested on: P. aeruginosa isolates that overproduced AmpC; assay: Broth microdilution susceptibility of isolates overexpressing AmpC; assay type: cell-based; conditions: P. aeruginosa (32)
Procedure: (§1) Frozen-form broth microdilution panels were manufactured by JMI Laboratories and contained cation-adjusted Mueller-Hinton broth. Quality assurance was performed by sterility checks, colony counts, and testing CLSI recommended quality control reference strains.

[2] = tested on: Enterobacterales overproducing AmpC; assay: as above; assay type: cell-based
Procedure: as §1

E. coli [3] = assay: Broth microdilution MIC against characterized subsets of UTI E. coli (2018-2020); assay type: cell-based; conditions: for MIC50 / MIC90: Escherichia coli; for MIC50: read-out: MIC50; for MIC90: read-out: MIC90
Source text: Isolates were collected from medical centers in all 9 US Census Regions and tested by broth microdilution. MIC interpretation was based on CLSI. Isolates that met MIC criteria were subjected to genome sequencing, followed by screening of extended-spectrum b-lactamase (ESBL) genes and epidemiology typing (MLST).

P. mirabilis = assay: Broth microdilution against US UTI pathogens 2019-2020; assay type: cell-based; conditions: P. mirabilis (235), cefuroxime: oral breakpoint
Procedure: (§2) This study assessed the in vitro activity of tebipenem and comparator agents against Enterobacterales (ENT) responsible for UTIs in the US during 2019-2020. A total of 3,576 ENT recovered from urine samples during the 2019-2020 STEWARD Surveillance Program were included in the study. Isolates were collected from medical centers in all 9 US Census Regions and were centrally tested for susceptibility by reference broth microdilution method. MIC interpretation was performed based on CLSI criteria.

Enterobacterales (ENT) = assay: as above; assay type: cell-based; conditions: All (3,567); cefuroxime: oral breakpoint
Procedure: as §2

K. pneumoniae = assay: as above; assay type: cell-based; conditions: K. pneumoniae (511); cefuroxime: oral breakpoint
Procedure: as §2

E. coli [4] = assay: as above; assay type: cell-based; conditions: E. coli (2,339); cefuroxime: oral breakpoint
Procedure: as §2

[5] = Particle size distribution of tebipenem pivoxil HBr batches by sieve method; assay type: physicochemical
[6] = Enterobacterales (36), second cefuroxime line, footnote c (not given)

C[C@H]1[C@H](NC(=O)/C(=N\OC(C)(C)C(=O)O)c2csc(N)n2)C(=O)N1S(=O)(=O)O [Aztreonam]
CLSI %1 [1]: 31.2% | CLSI % R [1]: 50.0% | CLSI % S [1]: 18.8% | CLSI %1 ([2]; Enterobacterales (36)): 14.3% | CLSI % R ([2]; Enterobacterales (36)): 54.3% | CLSI % S ([2]; Enterobacterales (36)): 31.4% | MIC50 ([2]; Enterobacterales (36), read-out: MIC50): > 16 µg/mL | MIC90 ([2]; Enterobacterales (36), read-out: MIC90): > 16 µg/mL

Cc1nnc(SCC2=C(C(=O)O)N3C(=O)[C@@H](NC(=O)Cn4cnnn4)[C@H]3SC2)s1 [CFZ, cefazolin]
% susceptible by CLSI M100 criteria (E. coli [3]; CTX-M a): 0.0% | % susceptible by CLSI M100 criteria (E. coli [3]; ESBL (360)): 0.6% | MIC50 (E. coli [3]; CTX-M a): > 32 µg/mL | MIC90 (E. coli [3]; CTX-M a): > 32 µg/mL | MIC50 (E. coli [3]; ESBL (360)): > 32 µg/mL | MIC90 (E. coli [3]; ESBL (360)): > 32 µg/mL | MIC50 (E. coli [3]; Non-ESBL (2035)): 2 µg/mL (≈ 4.4 µM) | MIC90 (E. coli [3]; Non-ESBL (2035)): 8 µg/mL (≈ 17.6 µM) | % susceptible by CLSI M100 criteria (E. coli [3]; Non-ESBL (2035)): 96.4%

CO/N=C(\C(=O)N[C@@H]1C(=O)N2C(C(=O)[O-])=C(C[N+]3(C)CCCC3)CS[C@H]12)c1csc(N)n1 [Cefepime]
CLSI %1 [1]: 40.6% | CLSI % R [1]: 12.5% | CLSI % S [1]: 46.9% | MIC50 [2]: 0.5 µg/mL (≈ 1.04 µM) | MIC90 [2]: 128 µg/mL (≈ 266 µM)

CO/N=C(\C(=O)N[C@@H]1C(=O)N2C(C(=O)O)=C(CSc3nc(=O)c(=O)[nH]n3C)CS[C@H]12)c1csc(N)n1 [Ceftriaxone, ceftriaxone]
% susceptible by CLSI M100 criteria (E. coli [3]; CMYb (33)): 0.0% | % susceptible by CLSI M100 criteria (E. coli [3]; CTX-M a): 0.0% | % susceptible by CLSI M100 criteria (E. coli [3]; DHA(7)): 28.6% | % susceptible by CLSI M100 criteria (E. coli [3]; ESBL (360)): 6.4% | MIC50 (E. coli [3]; CTX-M a): > 8 µg/mL | MIC90 (E. coli [3]; CTX-M a): > 8 µg/mL | MIC50 (E. coli [3]; DHA(7)): 2 µg/mL (≈ 3.61 µM) | MIC50 (E. coli [3]; ESBL (360)): > 8 µg/mL | MIC90 (E. coli [3]; ESBL (360)): > 8 µg/mL | MIC50 (E. coli [3]; Non-ESBL (2035)): ≤ 0.06 µg/mL | MIC90 (E. coli [3]; Non-ESBL (2035)): 0.12 µg/mL (≈ 0.216 µM) | % susceptible by CLSI M100 criteria (E. coli [3]; Non-ESBL (2035)): 100% | % susceptible by CLSI M100 criteria (E. coli [3]; Non-ST131 (203)): 37.9% | % susceptible by CLSI M100 criteria (E. coli [3]; ST131 (222)): 20.3% | MIC50 [2]: > 8 µg/mL | MIC90 [2]: > 8 µg/mL | CLSI %1 ([2]; Enterobacterales (36)): 13.9% | CLSI % R ([2]; Enterobacterales (36)): 63.9% | CLSI % S ([2]; Enterobacterales (36)): 22.2%

CO/N=C(\C(=O)N[C@@H]1C(=O)N2C(C(=O)O)=C(COC(N)=O)CS[C@H]12)c1ccco1 [Cefuroxime]
% susceptible; CLSI (P. mirabilis): (94.4) % | % susceptible; CLSI (P. mirabilis; listed as cefuroxime): 94.4% | % susceptible; CLSI (Enterobacterales (ENT)): (63.5) % | % susceptible; CLSI (K. pneumoniae): (75.3) % | % susceptible; CLSI (E. coli [4]): (63.1) % | MIC50 [2]: > 64 µg/mL | MIC90 [2]: > 64 µg/mL | CLSI %1 ([2]; Enterobacterales (36)): 5.6% | CLSI % R ([2]; Enterobacterales (36)): 94.4% | CLSI % S ([2]; Enterobacterales (36)): 0.0^b % | CLSI %1 [2, 6]: 5.6% | CLSI % R [2, 6]: 94.4% | CLSI % S [2, 6]: 0.0^c %

C[C@@H](O)[C@H]1C(=O)N2C(C(=O)O)=C(SCCN=CN)C[C@H]12 [Imipenem]
CLSI %1 [1]: 0.0% | CLSI % R [1]: 3.1% | CLSI % S [1]: 96.9% | MIC range [1]: 0.5 to 8 μ/ml | MIC50 [2]: 0.25 µg/mL (≈ 0.835 µM) | MIC90 [2]: 0.5 µg/mL (≈ 1.67 µM) | CLSI %1 ([2]; Enterobacterales (36)): 0.0% | CLSI % R ([2]; Enterobacterales (36)): 0.0% | CLSI % S ([2]; Enterobacterales (36)): 100.0% | MIC50 ([2]; Enterobacterales (36)): 0.25 μ/ml | MIC90 ([2]; Enterobacterales (36)): 0.5 μ/ml | MIC range ([2]; Enterobacterales (36)): ≤0.12 to 1 μ/ml

Br.C[C@@H](O)[C@H]1C(=O)N2C(C(=O)OCOC(=O)C(C)(C)C)=C(SC3CN(C4=NCCS4)C3)[C@H](C)[C@H]12 [Lot 1, Comil-ed]
particle size distribution, 45 um< [5]: 35% | particle size distribution, 75 um< [5]: 27% | particle size distribution, 106 um< [5]: 16% | particle size distribution, 150 um< [5]: 1% | particle size distribution, 300 um< [5]: 0% | particle size distribution, <45 um [5]: 21%

Br.C[C@@H](O)[C@H]1C(=O)N2C(C(=O)OCOC(=O)C(C)(C)C)=C(SC3CN(C4=NCCS4)C3)[C@H](C)[C@H]12 [Lot 2]
particle size distribution, 45 um< [5]: 46% | particle size distribution, 75 um< [5]: 6% | particle size distribution, 106 um< [5]: 6% | particle size distribution, 150 um< [5]: 2% | particle size distribution, 300 um< [5]: 0% | particle size distribution, <45 um [5]: 40%

Reference: US12048691B2 (SPERO THERAPEUTICS, INC., priority 2020, dated 2024)
